Experimental data reported in patent publication US20110105544A1, “CARBOXYLIC DERIVATIVES FOR USE IN THE TREATMENT OF CANCER” (priority 2007, published 2011).
Where a name gives a salt, the structure may show the parent alone.

Legend:
human recombinant HDAC 2 = biological target: T1, human recombinant HDAC 2 (Homo sapiens, UniProt Q92769); assay: HDAC inhibition assay (Fluor de Lys), HDAC2; type: biochemical; details: inhibitor-protein incubation 2 hours, reaction 1 h 30 min, 37° C.
T1 construct: purchased BPS Bioscience 50002
T1 sequence (Q92769 whole entry): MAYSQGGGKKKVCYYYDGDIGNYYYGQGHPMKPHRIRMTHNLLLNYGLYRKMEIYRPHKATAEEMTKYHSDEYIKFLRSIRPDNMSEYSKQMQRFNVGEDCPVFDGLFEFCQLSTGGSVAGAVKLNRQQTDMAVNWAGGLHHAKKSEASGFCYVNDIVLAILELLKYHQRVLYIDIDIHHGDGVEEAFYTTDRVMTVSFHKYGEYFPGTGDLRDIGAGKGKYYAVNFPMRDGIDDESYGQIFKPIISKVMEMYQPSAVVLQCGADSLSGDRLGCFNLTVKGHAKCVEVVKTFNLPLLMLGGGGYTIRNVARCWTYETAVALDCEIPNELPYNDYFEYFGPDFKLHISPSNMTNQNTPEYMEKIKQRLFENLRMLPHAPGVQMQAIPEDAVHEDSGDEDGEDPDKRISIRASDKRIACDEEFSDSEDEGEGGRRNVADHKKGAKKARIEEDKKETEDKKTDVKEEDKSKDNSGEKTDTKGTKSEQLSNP
Experimental: All assays were carried out in the assay buffer: 50 mM Tris/Cl, pH 8.0, 137 mM NaCl, 2.7 mM KCl, 1 mM MgCl2).
Reactions were carried out in a 96-wells microplate (Corning 96 well Flat Bottom Non-binding surface (black) ref. 3651).
Potential inhibitors were added after five fold serial dilutions in DMSO. Final DMSO concentration in the assay microplate was kept at 2%.
Afterwards, human recombinant HDAC1, HDAC 2 or HDAC 8 were added up to […] respectively in assay buffer. When necessary, the mixture was incubated at room temperature prior the addition of substrate.
Total reaction volume of 50 μl. Human recombinant HDACs could be acquired from commercial sources (HDAC1: ref. #50001, BPS Bioscience™; HDAC 2: ref. #50002, BPS Bioscience™; HDAC 8: ref. #50008, BPS Bioscience™).
Reactions were stopped with 50 μl Developer (KI-105 Fluor de Lys™, BIOMOL®) with 2 μmol/L trichostatin A (TSA, final concentration 1 μmol/L). After 20 minutes at 37° C., fluorescence (excitation 360 nm, emission 460 nm) was measured using an Infinite F200 fluorimeter (Tecan). Background was determined in reactions using substrate in the absence of enzyme.
IC50 values are defined as the compound concentration at which the deacetylase activity is 50% inhibited. In these assays the following grading was used (I: IC50≦10 μM; II: 10 μM<IC50≦100 μM; III: 100 μM<IC50≦1 mM) The results obtained are summarized in Table 4.

[1] = system: human colon cancer cell line HCT116; assay: alamarBlue viability assay, HCT116; type: cell-based; details: HCT-116, 72 hours, dose required to inhibit cell growth by 50%
Experimental: The human colon cancer cell line HCT116 and the human breast cancer cell line MCF-7 were from the American Type Culture Collection (ATCC; CCL-247 and HTB-22, respectively).
The HCT116 cell line was maintained in DMEM GlutaMAX (Invitrogen) supplemented with 10% fetal calf serum and the MCF7 cell line was maintained in RPMI1640 GlutaMAX (Invitrogen) containing 1 mM sodium piruvate and 10% fetal calf serum.
Cells were grown in a humidified incubator at 37° C. in 5% CO2.
Cells were plated in 96-well plates at a density of 6000 cells/well in 100 μl medium 24 h before addition of drugs. […] To do so, a drugs-dilution plate at twice the screening concentrations was prepared. 72 hours later, alamarBlue (Biosource, Invitrogen) viability assay was performed following manufacturer's protocol. In brief, alamarBlue diluted in media was added to cells to have a 5% solution. Cells were incubated at 37° C., 3 hours and at room temperature, 30 min. Cells with no drug and, cells with no drug and lysed with triton X-100 were used as controls. Fluorescence was monitored at 530 nm excitation and 590 nm emission wavelengths. Results were quantified using Infinite F200 Microplate Reader (Tecan Group, Ltd.). EC50 were calculated as the dose of drugs required to inhibit cell growth by 50%, with Origin 7.0 computer program.

IC50 (human recombinant HDAC 2) [µM]	EC50 [1] [µM]	SMILES
–	56	CC(=O)OCOC(=O)C(CCCc1ccccc1)CCc1ccc(OCc2ccccc2)cc1 (stereo not drawn) [Example 56, (Acetyloxy)methyl 2-[2-(4-benzyloxyphenyl)ethyl]-5-phenyl pentanoate]
10 to 100	160	O=C(O)C(CCCc1ccccc1)CCc1ccc(OCc2ccccn2)cc1 (stereo not drawn) [Example 58, 2-{2-[4-(Pyridin-2-ylmethoxy)phenyl]ethyl}-5-phenylpentanoic acid]
10 to 100	–	O=C(O)C(CCCc1ccccc1)CCc1ccc(OCc2cccnc2)cc1 (stereo not drawn) [Example 59, 2-{2-[4-(Pyridin-3-ylmethoxy)phenyl]ethyl}-5-phenyl pentanoic acid]
100 to 1000	–	O=C(O)C(CCCc1ccccc1)CCc1ccc(OCc2ccncc2)cc1 (stereo not drawn) [Example 60, 2-{2-[4-(Pyridin-4-ylmethoxy)phenyl]ethyl}-5-phenylpentanoic acid]
10 to 100	70.7	N#Cc1ccccc1Oc1ccc(CCC(CCCc2ccccc2)C(=O)O)cc1 (stereo not drawn) [Example 61, 2-{2-[4-(2-Cyanophenoxy)phenyl]ethyl}-5-phenylpentanoic acid]
10 to 100	155	N#Cc1cccc(Oc2ccc(CCC(CCCc3ccccc3)C(=O)O)cc2)c1 (stereo not drawn) [Example 62, 2-{2-[4-(3-cyanophenoxy)phenyl]ethyl}-5-phenylpentanoic acid]
10 to 100	88	N#Cc1ccc(Oc2ccc(CCC(CCCc3ccccc3)C(=O)O)cc2)cc1 (stereo not drawn) [Example 63, 2-{2-[4-(4-cyanophenoxy)phenyl]ethyl}-5-phenylpentanoic acid]
100 to 1000	–	O=C(O)C(CCCc1ccccc1)CCc1ccc(Oc2ccc(F)cc2)cc1 (stereo not drawn) [Example 64, 2-{2-[4-(4-Fluorophenoxy)phenyl]ethyl}-5-phenylpentanoic acid]
100 to 1000	–	O=C(O)C(CCCc1ccccc1)CCc1ccc(Oc2ccccc2)cc1 (stereo not drawn) [Example 65, 2-{2-[4-Phenoxyphenyl]ethyl}-5-phenylpentanoic acid]
100 to 1000	–	O=C(O)C(CCCc1ccccc1)CCc1ccc(Oc2ccc(C(F)(F)F)cc2)cc1 (stereo not drawn) [Example 66, 2-{2-[4-(4-Trifluoromethylphenoxy)phenyl]ethyl}-5-phenyl pentanoic acid]
10 to 100	–	COc1ccc(Oc2ccc(CCC(CCCc3ccccc3)C(=O)O)cc2)cc1 (stereo not drawn) [Example 67, 2-{2-[4-(4-Methoxyphenoxy)phenyl]ethyl}-5-phenylpentanoic acid]
100 to 1000	–	O=C(O)C(CCc1ccccc1)SCCc1ccccc1 (stereo not drawn) [Example 68, 4-Phenyl-2-[(2-phenylethyl)thio]butanoic acid]
100 to 1000	825	O=C(O)C(CCCc1ccccc1)SCc1ccccc1 (stereo not drawn) [Example 70, Sodium 2-(benzylthio)-5-phenylpentanoate]
10 to 100	88.3	O=C(O)C(CCCc1ccccc1)CCc1ccc(-c2ccccc2)cc1 (stereo not drawn) [Example 72, 2-[2-(1,1′-Biphenyl-4-yl)ethyl]-5-phenylpentanoic acid]
100 to 1000	48.6	O=C(O)C(CCCc1ccccc1)CCc1ccc(-c2ccco2)cc1 (stereo not drawn) [Example 73, 2-{2-[4′-(2-Furyl)phenyl]ethyl}-5-phenylpentanoic acid]
10 to 100	94.5	O=C(O)C(CCCc1ccccc1)CCc1ccc(-c2ccoc2)cc1 (stereo not drawn) [Example 74, 2-{2-[4′-(3-Furyl)phenyl]ethyl}-5-phenylpentanoic acid]
100 to 1000	184	O=C(O)C(CCCc1ccccc1)CCc1ccc(-c2ccsc2)cc1 (stereo not drawn) [Example 75, 2-{2-[4′-(3-Thienyl)phenyl]ethyl}-5-phenylpentanoic acid]
10 to 100	166	O=C(O)C(CCCc1ccccc1)CCc1ccc(-c2ccncc2)cc1 (stereo not drawn) [Example 76, 2-{2-[(4′-Pyridinyl)phenyl-4-yl]ethyl}-5-phenylpentanoic acid hydrochloride]
10 to 100	87.2	O=C(O)C(CCCc1ccccc1)CCc1ccc(-c2cccs2)cc1 (stereo not drawn) [Example 78, 5-Phenyl-2-[2-(4′-thien-2-ylphenyl)ethyl]pentanoic acid]
100 to 1000	36.7	O=C(O)C(CCCc1cccc2ccccc12)CCc1ccc(-c2cccs2)cc1 (stereo not drawn) [Example 79, 5-(1-Naphthyl)-2-[2-(4′-thien-2-ylphenyl)ethyl]-pentanoic acid]
10 to 100	107	O=C(O)C(CCCc1cccc2ccccc12)CCc1ccc(-c2cccnc2)cc1 (stereo not drawn) [Example 80, 5-(1-Naphthyl)-2-[2-(4′-pyridin-3-ylphenyl)ethyl]-pentanoic acid]

Continued, compound first:

SMILES	IC50 (human recombinant HDAC 2) [µM]	EC50 [1] [µM]
O=C(O)C(CCCc1ccccc1)CCC1CNc2ccccc21 (mixture of isomers) [Example 53, 2-[2-(2,3-Dihydro-1H-indol-3-yl)ethyl]-5-phenylpentanoic acid]	10 to 100	–
O=C(O)C(CCCCc1ccccc1)CCc1ccccc1 (stereo not drawn) [Example 14, 6-Phenyl-2-(2-phenylethyl)hexanoic acid]	10 to 100	256
CC(=O)OCOC(=O)C(CCc1ccccc1)Cc1ccccc1 (stereo not drawn) [Example 15, (Acetyloxy)methyl 2-benzyl-4-phenylbutanoate]	–	85
CC(=O)OCOC(=O)C(CCCc1ccccc1)CCc1ccccc1 (stereo not drawn) [Example 16, (Acetyloxy)methyl 5-phenyl-2-(2-phenylethyl)pentanoate]	–	267
COc1ccc(NS(=O)(=O)c2cccc(CCCC(CCc3ccccc3)C(=O)OCOC(C)=O)c2)cc1OC (stereo not drawn) [Example 17, (Acetyloxy)methyl 5-(3-{[(3,4-dimethoxyphenyl)amino]sulfonyl}phenyl)-2-(2-phenylethyl)pentanoate]	–	62
CC(=O)OCOC(=O)C(CCCc1cccc(S(=O)(=O)Nc2ccc(C)cc2)c1)CCc1ccccc1 (stereo not drawn) [Example 18]	–	95
Cc1ccc(S(=O)(=O)Nc2cccc(CCCC(CCc3ccccc3)C(=O)O)c2)cc1 (stereo not drawn) [Example 25, 5-(3′-{[(4-Methylphenyl)sulfonyl]amino}phenyl)-2-(2-phenylethyl)pentanoic acid]	10 to 100	121
Nc1ccc(CCC(CCCc2ccccc2)C(=O)O)cc1 (stereo not drawn) [Example 32, 2-[2-(4-Aminophenyl)ethyl]-5-phenylpentanoic acid]	100 to 1000	–
O=C(O)C(CCCc1ccccc1)CCc1ccc(NCc2ccccc2)cc1 (stereo not drawn) [Example 33, 2-[2-(4-(Benzylamino)phenyl)ethyl]-5-phenylpentanoic acid]	10 to 100	71.4
CNS(=O)(=O)c1cccc(CCCC(CCc2ccccc2)C(=O)OC)c1 (stereo not drawn) [Example 42, Methyl 5-(3-[(methylamino)sulfonyl]phenyl)-2-(2-phenylethyl)pentanoate]	–	56
Cc1ccc(NS(=O)(=O)c2cccc(CCCC(CCCc3ccccc3)C(=O)O)c2)cc1 (stereo not drawn) [Example 44, 5-[3-(4-methylanilinosulfonyl)phenyl]-2-(3-phenylpropyl)pentanoic acid]	10 to 100	95
CCc1ccc(CCC(CCCc2ccc(S(=O)(=O)Nc3ccccc3)cc2)C(=O)OC)cc1 (stereo not drawn) [Example 47, Methyl 5-[4-(anilinosulfonyl)phenyl]-2-[2-(4-ethylphenyl)ethyl]pentanoate]	–	23
CCc1ccc(CCC(CCCCc2ccccc2)C(=O)O)cc1 (stereo not drawn) [Example 48, 2-[2-(4-Ethylphenyl)ethyl]-6-phenylhexanoic acid]	10 to 100	112
CCc1ccc(CCC(CCCc2cccc3ccccc23)C(=O)O)cc1 (stereo not drawn) [Example 50, 5-(1-Naphthyl)-2-[2-(4-ethylphenyl)ethyl]-pentanoic acid]	100 to 1000	103
O=C(O)C(CCCc1ccccc1)CCc1ccc(Br)cc1 (stereo not drawn) [Example 52, 2-[2-(4-Bromophenyl)ethyl]-5-phenylpentanoic acid]	100 to 1000	107
O=C(O)C(CCCc1ccccc1)CCc1ccc(O)cc1 (stereo not drawn) [Example 54, 2-[2-(4-hydroxyphenyl)ethyl]-5-phenylpentanoic acid]	100 to 1000	–
